Results published in patent US11730707B2, “Compounds for treating von Hippel-Lindau disease” (CONSEJO SUPERIOR DE INVESTIGACIONES CIENTÍFICAS, priority 2017, dated 2023).
“Also recorded” adds a separate entry of the source. Where a name gives a salt, the structure may show the parent alone.

What was measured:
[1] = system: HUVEC; test: Cell viability measure (CellTiter-Glo); assay type: cell-based, human
Description: (§1) Endothelial cell lines (HUVECs and HMECs), human ccRCC Vhl−/− 786-O cell line, and primary cultures hemangioblastomas from patients (Hb14 and 18) were seeded in triplicate onto a 96-well plate (2×10^3 per well). […] Cell viability (cell proliferation, ATP content) was determined using the CellTiter-Glo Luminescent Cell Viability Assay kit (Promega) according to the supplier's instructions. […] Cell lysis was induced in an orbital shaker for 2 min, and then plates were incubated at room temperature for 10 min to stabilize the luminescent signal. Luminescence was measured using a GlomaxMultidetection System (Promega) Readings were normalized to control (100%).

[2] = system: HMEC; test: Cell viability measure (CellTiter-Glo); assay type: cell-based, human
Description: as §1

[3] = system: hemangioblastoma primary cell cultures from VHL patients; conditions: both at 100 μM, 72 hours
Description: HeLa 9XHRE cells were stably transfected with a HREluc reporter carrying nine copies in tandem of the hypoxia responsive element (HRE) followed by luciferase gene, and were cultured in DMEM (Dulbecco's Modified Eagle Medium, Gibco, Grand Island, N.Y., USA) supplemented with 10% fetal bovine serum (FBS; Gibco). To induce hypoxic conditions, HeLa cells were cultured with 100 μM desferrioxamine (DFO) (chemical hypoxia). […] Primary cultures of CNS hemangioblastoma were obtained according to the previously described by Albiñana et al., Orphanet J Rare Diseases, 2015, 10: 118.
The viability of hemangioblastoma and HeLa 9XHRE cells was measured with a CellTiter-Glo Luminescent Cell Viability Assay (Promega, Madison, Wis., USA). This is a homogeneous method to determine the number of viable cells in culture based on quantitation of the ATP present, which signals the presence of metabolically active cells. […] After treatment, plates were equilibrated to room temperature for 30 min before the addition of 100 μl of Cell Titer-Glo reagent (Lysis buffer, Ultra-Glo Recombinant Luciferase, Luciferine and Mg2+). Luminescence was measured using a Glomax Multidetection System (Promega).

[4] = system: VHL-derived hemangioblastoma cells (hemangiospheres); test: Hemangiospheres formation and culture; assay type: cell-based, human; conditions: 100 μM, 7 days
Description: VHL-derived hemangioblastoma cells were grown in suspension in phenol red free DMEM:F-12 medium with GlutaMAX, supplemented with B27, 20 ng/ml EGF, 20 ng/ml bFGF and 1% penicillin/streptomycin at 37° C. in 5% CO2. Single cell suspensions were plated at a density of 50.000 cells/ml in 75 cm^2 ultralow attachment flasks (Corning).

[5] = system: human ccRCC Vhl−/− 786-O cell line; test: Cell viability measure (CellTiter-Glo); assay type: cell-based; conditions: 72 hours, 0 to 250 μM
Description: as §1

[6] = system: HUVECs tubulogenesis; test: Tube formation assay on Matrigel; assay type: cell-based, human; conditions: 100 μM, 3 hours
Source text: FIG. 6. […] Tubulogenesis is another in vitro test for angiogenesis. Endothelial cells cultured on matrigel have the property of building cell tube-like structures, which mimic the “vessels” structure. […] B. The number of closed cells (density network) is quantified and averaged from 5 different fields in each case. Bar histograms represent the mean±SD.
(§2) In vitro-scratched wounds were created by scraping confluent HUVEC-1 monolayers in P-24 plate wells with sterile disposable pipet tips.

[7] = system: β2-adrenergic receptor over β1-adrenergic receptor; conditions: reported in literature; cited from earlier work
[8] = system: HUVEC migration; test: Wound healing assay; assay type: cell-based, human; conditions: 100 μM, 6 hours
Description: FIG. 5. […] A. Functional in vitro tests for angiogenesis include “wound-healing” or plate-scratch, to follow the migration capacity of endothelial cells after short times. When a confluent monolayer is disrupted with the tip of a micropipette to create a discontinuity, endothelial cells normally migrate to cover the discontinuity “wound the healing” in a short time, depending on the size of the “wound” but normally, less than 8 hours. This test measures the migration by taking pictures at different times from the moment the wound is created. Only the final picture after 6 hours is shown. The migrated distance is quantified, and in the following graph the evolution is shown.
as §2

[9] = system: 786-O Vhl−/− ccRCC xenograft; assay type: in vivo; conditions: 10 mg/Kg daily intraperitoneally; 50-60 days after the cell inoculation
Description: FIG. 10. Xenografts of 786-O Vhl−/− human ccRCC cells in mice. Male 7-8 weeks old NOD scid gamma (NSG) mice were injected in the dorsal flank with a single cell suspension of 10^6 786-O cells. When tumor size reached 100 mm3 volume, mice were randomly divided in 3 groups, of 9/10 mice each. […] Tumor size was measured by a caliper every 2-3 days and volumes were calculated following the formula: shortest^2×largest×0.52. Mice were sacrificed when tumor volume average of the control group reached an end point established based on ethical procedures. Arrow marks the beginning of the treatment.
Male 7-8 weeks old NOD scid gamma (NSG) mice were injected in the dorsal flank with a single cell suspension of […] 786-O cells. When tumor size reached 100 mm^3 volume, mice were randomly divided in 3 groups, of 9/10 mice each. […] Tumor size was measured by a caliper every 2-3 days and volumes were calculated following the formula: shortest 2×largest×0.52. Mice were sacrificed when tumor volume average of the control group reached an end point established according to ethical procedures

[10] = system: BAX and CASP9 mRNA in hemangioblastoma cells; test: Real-time RT-PCR of proapoptotic genes; assay type: cell-based, human; conditions: 100 μM, 72 h; HB26 and HB11 hemangioblastoma cell culture
Description: Total cellular RNA was extracted from hemangioblastoma cells using a Nucleo Spin RNA kit (Macherey-Nagel, Düren, Germany). One microgram of total RNA was reverse-transcribed in a final volume of 20 μl with the First Strand cDNA Synthesis Kit (Roche, Mannheim, Germany) using random primers. SYBR Green PCR system (BioRad, Hercules, Calif., USA) was used to carry out real-time PCR with an iQ5 system. Primers used for qPCR were: […]

[11] = system: HIF transcriptional activity in HeLa 9XHRE cells; test: HRE-luciferase reporter assay under DFO chemical hypoxia; assay type: cell-based, human; conditions: for luciferase activity induced by hypoxia (HIF transcriptional activity): 100 μM, 100 μM DFO
Source text: Angiogenesis is largely dependent of HIF transcription program, triggered in the presence of hypoxic condition, or as in the case of Von Hippel Lindau haemangioblastoma cells, due to the lack of VHL protein in charge of targeting HIF protein for its proteasome processing under normoxic conditions in wild type cells. A special peculiarity of hemangioblastoma cells, and clear cell kidney carcinoma cells, is that they constitutively express HIF protein, which is active, and is translocated to nucleus where it may bind and activates its gene targets such as: VEGF, PDGF, EPO, endoglin, several metalloproteases, carbonic anhydrase, Glut-1 and so on.

[12] = system: primary cultures hemangioblastomas from patients (Vhl−/−); test: Cell viability measure (CellTiter-Glo); assay type: cell-based, human; conditions: for viability (ATP content) of the VHL−/− cells: 72 hours, hemangioblastoma primary cultures 18, 14 and 786-O vs HUVEC, HMEC (FIG. 9)
Description: Cell viability (cell proliferation, ATP content) was determined using the CellTiter-Glo Luminescent Cell Viability Assay kit (Promega) according to the supplier's instructions. […] Cell lysis was induced in an orbital shaker for 2 min, and then plates were incubated at room temperature for 10 min to stabilize the luminescent signal. Luminescence was measured using a GlomaxMultidetection System (Promega) Readings were normalized to control (100%).

[13] = system: retina hemangioblastomas; conditions: cited from earlier work

Cc1ccc(OCC(O)C(C)NC(C)C)c2c1CCC2 [ICI 118,551, erythro-D,L-1(methylinden-4-yloxy)-3-isopropylaminobutan-2-ol]
decrease in viability ([1]; 100 μM (FIG. 11)): 80% | LD50 ([1]; 72 hours, 0 to 250 μM): around 150 μM | decrease in viability ([2]; HMEC-1, 100 μM (FIG. 11)): 55% | LD50 ([2]; HMEC, 72 hours, 0 to 250 μM): around 150 μM | effect on viability compared with propranolol [3]: superior to propranolol | hemangiosphere formation [4]: hemangiospheres are disrupted; also recorded: the spheres appear disaggregated | LD50 [5]: 100 µM | tubulogenesis (number of closed structures) [6]: dramatically decreased; also recorded: significantly inhibit the tubulogenesis | β2/β1 selectivity ratio [7]: at least 50 | cell migration (closure of the discontinuity) [8]: delay the closure of the discontinuity; also recorded: delay cell migration | decrease of the size tumor versus vehicle treated mice [9]: around 30% | Bax mRNA expression (RT-qPCR) [10]: significantly upregulated; also recorded: increased | Caspase 9 mRNA expression (RT-qPCR) [10]: significantly upregulated; also recorded: increased | luciferase activity induced by hypoxia (HIF transcriptional activity) [11]: reduced practically to “0” | luciferase activity induced by hypoxia (HIF transcriptional activity) ([11]; listed as ICI): prevented hypoxia stimulation | luciferase activity induced by hypoxia (HIF transcriptional activity) ([11]; listed as ICI118,551): extremely reduced | hypoxia stimulation induced by DFO (relative luciferase activity) ([11]; 50 or 100 μMolar, 24 h, DFO 100 μMolar simultaneously): inhibits the hypoxia stimulation induced by DFO | effect on HIF luciferase activity compared with propranolol ([11]; equal dose): clearly superior to propranolol | viability (ATP content) of the VHL−/− cells [12]: decrease, in a dose-dependent manner and with higher specificity | viability at 100 µM ([12]; Homo sapiens, Haemangioblastoma (HB) cells, 100 μM (FIG. 11)): 20%

CC(C)NCC(O)COc1cccc2ccccc12 (stereo not shown) [Propranolol]
hemangiosphere formation [4]: hemangiospheres are disrupted; also recorded: the spheres appear disaggregated | tubulogenesis (number of closed structures) [6]: dramatically decreased; also recorded: significantly inhibit the tubulogenesis | tumor growth during the clinical trial ([13]; 120 mg a day, 12 months, 7 VHL patients): did not grow in any case | visual acuity ([13]; 120 mg a day, 12 months): in some cases visual acuity increased | side effect ([13]; 120 mg a day): Low blood pressure | exudates from the hemangioblastomas ([13]; 2 cases, between 3 and 6 months of treatment): disappeared completely | cell migration (closure of the discontinuity) [8]: delay the closure of the discontinuity; also recorded: delay cell migration | decrease of the size tumor versus vehicle treated mice [9]: around 30% | luciferase activity induced by hypoxia (HIF transcriptional activity) [11]: dampened; also recorded: prevented hypoxia stimulation | luciferase activity induced by hypoxia (HIF transcriptional activity) ([11]; listed as propranolol): extremely reduced | viability (ATP content) of the VHL−/− cells [12]: decrease, in a dose-dependent manner and with higher specificity

CC(C)NCC(O)COc1ccc(CC(N)=O)cc1 (stereo not shown) [Atenolol]
luciferase activity induced by hypoxia (HIF transcriptional activity) [11]: less significant | luciferase activity induced by hypoxia (HIF transcriptional activity) ([11]; listed as atenolol): hardly reduced the hypoxia stimulation

COc1ccc(OC)c(C(O)C(C)NC(C)(C)C)c1 (racemic) [butoxamine, DL-erythro-α-(2,5-dimethoxyphenyl)-β-t-butyl aminopropanol hydrochloride]
β2/β1 selectivity ratio [7]: at least 17
